Reference: US11579088B2, “Device and method for imaging shortwave infrared fluorescence” (Massachusetts Institute of Technology, priority 2016, dated 2023)

Tested on: liver
Test: Detection of indocyanine green across SWIR wavelengths in vivo (hepatobiliary clearance)
Conditions: mouse, intravenous 1.7 mg/kg, SWIR fluorescence detection
Experimental: When injected into a living system, indocyanine green is metabolized by the liver and excreted by the liver and bile ducts by a process called hepatobiliary clearance. This process was observed, noninvasively, by injecting a solution of indocyanine green intravenously into a mouse and using an SWIR imaging system as described herein to observe the fluorescence of indocyanine green. The dye was injected at a dose of 1.7 mg/kg which is below the maximum recommended dose of indocyanine green in humans. […] Despite the fact that 1500 nm is far from the peak emission of indocyanine green, there is sufficient emission intensity from the tail of the emission peak in this wavelength region to obtain a SWIR fluorescence image. Separately, hepatobiliary excretion of ICG into the small intestine in a mouse was also imaged using a near video rate imaging of 19.7 frames per second using a 1200 nm long-pass filter, which enabled capturing the peristaltic movements of the small intestine. Although the frame rate was slower, 2.0 frames per second, it was possible to image the ICG clearance using a 1500 nm long-pass filter, capturing wavelengths between roughly 1500 and 1620 nm.

**Q.** CC1(C)C(/C=C/C=C/C=C/C=C2\N(CCCCS(=O)(=O)O)c3ccc4ccccc4c3C2(C)C)=[N+](CCCCS(=O)(=O)[O-])c2ccc3ccccc3c21 [ICG, indocyanine green] was tested. Which “accumulation in the liver” value did it give?
**A.** observed
